Some test systems named below: BT-549; SN12C; OVCAR-4; SK-MEL-5; NCI/ADR-RES; MDA-MB-435; UACC-257; U-251; SNB-75; SF-295; LOX IMVI; SF-539; EKVX; CAKI-1; HCC 2998; OVCAR-3; NCI-H226; SW-620; MDA-N.
Experiment in all cases: NCI tumour cell line growth inhibition, 48 h

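Tested at 5 concentrations; 48 h exposure; 96-well plates; endpoints linearly interpolated, else capped at highest concentration. GI50 is the concentration that inhibits growth by half.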 Active and inactive are the calls of the source. No stated cut-off is given here; in the data, active = GI50 up to about 1.1 µM and inactive = higher. Some results are limits rather than exact numbers.

With `Oc1[nH]c(Nc2ccc(Cl)cc2)nc2ncnc1-2`, the GI50 with BT-549 was > 100 µM (inactive); in the assay with SN12C it was > 100 µM (inactive); in the assay on OVCAR-4, 64.7 µM (inactive); with SK-MEL-5, > 100 µM (inactive); in the assay on NCI/ADR-RES, > 100 µM (inactive); with MDA-MB-435, > 100 µM (inactive). In addition, the GI50 with UACC-257 was > 100 µM (inactive); in the assay with U-251 it was > 100 µM (inactive); in the assay with SNB-75 it was 43.4 µM (inactive); with SF-295, > 100 µM (inactive); with LOX IMVI, > 100 µM (inactive); in the assay on SF-539, > 100 µM (inactive). Further, the GI50 is > 100 µM (inactive) in the assay with EKVX; > 100 µM (inactive) in the assay on CAKI-1; 98.6 µM (inactive) in the assay with HCC 2998; > 100 µM (inactive) in the assay on OVCAR-3; > 100 µM (inactive) in the assay with NCI-H226; > 100 µM (inactive) with SW-620.
Take `O=C(O)c1ccccc1-c1ccccc1C(=O)Nc1ccc2c(c1)nc(O)c1ccccc12`: the GI50 in the assay with BT-549 was 52.4 µM (inactive); in the assay with SN12C, > 100 µM (inactive); in the assay with OVCAR-4 it was > 100 µM (inactive); with SK-MEL-5, > 100 µM (inactive); in the assay with NCI/ADR-RES, > 100 µM (inactive); in the assay on MDA-MB-435, 89.7 µM (inactive). Moreover, the GI50 is > 100 µM (inactive) in the assay with UACC-257; 51.9 µM (inactive) in the assay on U-251; 93.3 µM (inactive) in the assay with SNB-75; > 100 µM (inactive) in the assay on SF-295; 48.9 µM (inactive) in the assay on LOX IMVI; 94.2 µM (inactive) with SF-539. Besides, the GI50 in the assay on EKVX, in the assay with CAKI-1, with OVCAR-3, in the assay with NCI-H226 and in the assay with SW-620 was > 100 µM (inactive) in each case.
Turning to `CN(C(=O)C1=CCC2(CC1)OCCO2)c1ccccc1OS(=O)(=O)C(F)(F)F`, the GI50 with SN12C is > 100 µM (inactive); in the assay on OVCAR-4 it was 57.8 µM (inactive); in the assay on SK-MEL-5, > 100 µM (inactive); in the assay on NCI/ADR-RES it was 53.3 µM (inactive); with MDA-MB-435, > 100 µM (inactive); in the assay with UACC-257, > 100 µM (inactive). The GI50 in the assay on U-251 was > 100 µM (inactive); in the assay on SNB-75, 15.5 µM (inactive); in the assay on MDA-N it was > 100 µM (inactive); with SF-295 it was 90.2 µM (inactive); with LOX IMVI, 59.7 µM (inactive); in the assay on EKVX, > 100 µM (inactive). The GI50 with CAKI-1 was > 100 µM (inactive); with HCC 2998, > 100 µM (inactive); in the assay with OVCAR-3, > 100 µM (inactive); in the assay on NCI-H226, 16.2 µM (inactive); with SW-620 it was > 100 µM (inactive).
As for `CC(C)OC(=O)/C=C/C(=O)O/C=C/[N+](=O)[O-]`, the GI50 with BT-549 was 41.8 µM (inactive); with OVCAR-4, 26.9 µM (inactive); in the assay on SK-MEL-5 it was 31.6 µM (inactive); with NCI/ADR-RES, 8.55 µM (inactive); with MDA-MB-435, 38.9 µM (inactive); in the assay with UACC-257, 19.9 µM (inactive). Further, the GI50 in the assay with U-251 was 21.7 µM (inactive); in the assay with SF-295, 27.9 µM (inactive); with LOX IMVI, 17.5 µM (inactive); in the assay on SF-539, 37.1 µM (inactive); with EKVX, 18.2 µM (inactive); in the assay with CAKI-1 it was 34 µM (inactive). Besides, the GI50 with HCC 2998 was 20.5 µM (inactive); in the assay with OVCAR-3, 31.7 µM (inactive); in the assay with NCI-H226 it was 39.9 µM (inactive); with SW-620 it was 25.4 µM (inactive).
As for `Clc1cccc(Cl)c1C1SCc2nc3ncccc3n21` (stereo not drawn), the GI50 in the assay with SN12C was > 100 µM (inactive); with OVCAR-4, 52.2 µM (inactive); in the assay on SK-MEL-5, 65.8 µM (inactive); in the assay with NCI/ADR-RES, > 100 µM (inactive); with MDA-MB-435, 39.4 µM (inactive); in the assay on UACC-257 it was > 100 µM (inactive). Besides, the GI50 with U-251 was > 100 µM (inactive); in the assay with SNB-75, 40.6 µM (inactive); in the assay with MDA-N, 62.8 µM (inactive); with SF-295 it was > 100 µM (inactive); in the assay with LOX IMVI it was > 100 µM (inactive); in the assay with SF-539, > 100 µM (inactive). The GI50 is > 100 µM (inactive) in the assay on EKVX; 8.07 µM (inactive) with CAKI-1; > 100 µM (inactive) in the assay on HCC 2998; 44.1 µM (inactive) with OVCAR-3; 66.8 µM (inactive) in the assay on NCI-H226; > 100 µM (inactive) with SW-620.
`COc1ccc(-n2c(N)c(C#N)c(C#N)c2-c2cccc([N+](=O)[O-])c2)cc1`: the GI50 in the assay with BT-549 is > 100 µM (inactive); in the assay on SN12C, > 100 µM (inactive); in the assay on OVCAR-4, 26.5 µM (inactive); with SK-MEL-5, 22.9 µM (inactive); with NCI/ADR-RES it was > 100 µM (inactive); in the assay with MDA-MB-435 it was > 100 µM (inactive). Also, the GI50 with UACC-257 was > 100 µM (inactive); in the assay on U-251, 38.8 µM (inactive); in the assay with SNB-75 it was 2.96 µM (inactive); in the assay with SF-295 it was 42.5 µM (inactive); in the assay with LOX IMVI, 48.3 µM (inactive); with SF-539, 32.4 µM (inactive). For the same molecule, the GI50 in the assay with EKVX is 26 µM (inactive); in the assay on CAKI-1, > 100 µM (inactive); with HCC 2998 it was > 100 µM (inactive); in the assay with OVCAR-3 it was > 100 µM (inactive); in the assay with NCI-H226, > 100 µM (inactive); with SW-620, > 100 µM (inactive).
For `CC(C)(C)OC(=O)n1cc(C2CN(O)C(=O)C23CCC(=O)N3Cc2ccccc2)c2ccccc21` (stereo not drawn), the GI50 was 27 µM (inactive) in the assay with SN12C; 98.9 µM (inactive) with OVCAR-4; 29.4 µM (inactive) in the assay on SK-MEL-5; 69.5 µM (inactive) in the assay on NCI/ADR-RES; 28.6 µM (inactive) in the assay with MDA-MB-435; 64.1 µM (inactive) in the assay on UACC-257. The GI50 in the assay on U-251 is 36.9 µM (inactive); with SNB-75, 32.7 µM (inactive); in the assay on MDA-N, 52.7 µM (inactive); in the assay with SF-295, 78.5 µM (inactive); with LOX IMVI, 21.2 µM (inactive); in the assay on SF-539, 49 µM (inactive). For the same molecule, the GI50 is 21.9 µM (inactive) in the assay on EKVX; 54.6 µM (inactive) with CAKI-1; 66.5 µM (inactive) with OVCAR-3; 24.5 µM (inactive) in the assay on NCI-H226; 68.7 µM (inactive) with SW-620.
Consider `O=c1cc(CC(O)(C(F)(F)Cl)C(F)(F)Cl)[nH]n1-c1ccccc1`, for which the GI50 with SN12C, with OVCAR-4, with SK-MEL-5, with NCI/ADR-RES, in the assay on MDA-MB-435 and in the assay with UACC-257 was > 100 µM (inactive) in each case. Also, the GI50 in the assay with U-251, in the assay with SNB-75, in the assay with SF-295, in the assay on LOX IMVI, in the assay with SF-539 and with EKVX was > 100 µM (inactive) throughout. Also, the GI50 with HCC 2998 was > 100 µM (inactive); in the assay with NCI-H226 it was 66.4 µM (inactive); with SW-620 it was > 100 µM (inactive).
As to `COc1cc(/C=C/C(=O)OC[C@H](Br)[C@H](OC(C)=O)c2ccc3c(c2)OCO3)cc(OC)c1OC`, the GI50 with BT-549 was > 100 µM (inactive); with SN12C it was > 100 µM (inactive); in the assay with OVCAR-4 it was > 100 µM (inactive); with SK-MEL-5, > 100 µM (inactive); in the assay on NCI/ADR-RES it was 57.7 µM (inactive); with MDA-MB-435, > 100 µM (inactive). Moreover, the GI50 in the assay with UACC-257, with U-251, in the assay on SF-295, in the assay on LOX IMVI, in the assay on SF-539 and in the assay on EKVX was > 100 µM (inactive) in each case. In addition, the GI50 with CAKI-1 is > 100 µM (inactive); in the assay with HCC 2998 it was 80.4 µM (inactive); in the assay on OVCAR-3 it was > 100 µM (inactive); with NCI-H226, > 100 µM (inactive); with SW-620, > 100 µM (inactive).
On to `CC(C)=CCN1c2ccccc2NC(=O)CC1C` (stereo not drawn), for which the GI50 in the assay with BT-549 is 22.7 µM (inactive); with SN12C, 33.3 µM (inactive); in the assay with OVCAR-4, 28.4 µM (inactive); in the assay on SK-MEL-5, 29.3 µM (inactive); in the assay with NCI/ADR-RES it was 49.8 µM (inactive); in the assay with MDA-MB-435, > 100 µM (inactive). The GI50 was 28.8 µM (inactive) with UACC-257; > 100 µM (inactive) in the assay on U-251; > 100 µM (inactive) in the assay on SF-295; > 100 µM (inactive) in the assay on LOX IMVI; > 100 µM (inactive) in the assay with SF-539; 51.3 µM (inactive) with EKVX. Besides, the GI50 was > 100 µM (inactive) in the assay on CAKI-1; > 100 µM (inactive) in the assay with HCC 2998; 70.6 µM (inactive) in the assay with OVCAR-3; > 100 µM (inactive) with NCI-H226; > 100 µM (inactive) in the assay on SW-620.
With `CCC(=O)OC1=C(c2ccccc2)Sc2ccc(Cl)cc2-n2cccc21`, the GI50 with SN12C was 5.05 µM (inactive); with OVCAR-4, > 10 µM (inactive); in the assay with SK-MEL-5 it was > 10 µM (inactive); in the assay on MDA-MB-435, 2.22 µM (inactive); with UACC-257, > 10 µM (inactive); in the assay with SNB-75, > 10 µM (inactive). Moreover, the GI50 in the assay with SF-295 was 9.62 µM (inactive); in the assay on LOX IMVI, 8.65 µM (inactive); in the assay with EKVX, > 10 µM (inactive); in the assay on CAKI-1 it was > 10 µM (inactive); in the assay on HCC 2998 it was > 10 µM (inactive); in the assay on SW-620 it was 7.67 µM (inactive).
For `c1ccc(-c2cccc(-c3ccccn3)n2)nc1` [TERPYRIDINE], the GI50 in the assay on SN12C was 0.631 µM (active); in the assay on OVCAR-4, 0.558 µM (active); in the assay on SK-MEL-5, 0.246 µM (active); with NCI/ADR-RES it was 0.321 µM (active); with MDA-MB-435, 0.483 µM (active); in the assay with UACC-257, 0.425 µM (active). The GI50 in the assay with U-251 was 0.548 µM (active); in the assay with SNB-75, 1.57 µM (inactive); with MDA-N, 0.441 µM (active); in the assay with SF-295, 0.288 µM (active); in the assay on SF-539 it was 0.51 µM (active); in the assay on EKVX, 0.476 µM (active). In addition, the GI50 with CAKI-1 was 0.527 µM (active); in the assay on HCC 2998, 0.298 µM (active); in the assay with OVCAR-3, 0.316 µM (active); in the assay with SW-620 it was 1.06 µM (active).

The values are drawn from ChEMBL document CHEMBL1201862, “PubChem BioAssay data set” (2004).
